# Laboratory results from patent publication US20240165243A1, “EGFR DEGRADERS AND METHODS OF USE” (BeiGene Switzerland GmbH, priority 2021, published 2024).
# Columns and labels:
# Type in all cases: cell-based
# EGFR (L858R/T790M/C797S) [1] = target: T1, EGFR (L858R/T790M/C797S) (Homo sapiens, UniProt P00533, C797S/L858R/T790M); assay: Cell degradation HTRF assay, BaF3-LTC cells; parameters: expressed in transfected cells; host or cells: BaF3-LTC; details: 16 h treatment; for DC50: HTRF; for Dmax: maximum percentage of degradation
# Procedure: (§1) Cell Degradation of Example 1-28
# (§2) BaF3-LTC (L858R/T790M/C797S) and BaF3-DTC (Del19/T790M/C797S) cells are treated with compounds diluted in 0.2% DMSO cell culture medium and incubate for 16 h, 37° C., 5% CO2. The final concentration of compounds in all assay is start with 10 uM, 4-fold dilution, total 8 doses were included.
# (§3) After 16 h treatment, add HTRF lysis buffer to each well; seal the plate and incubate 1 hour at room temperature on a plate shaker; Once the cells are lysed, 16 μL of cell lysate are transferred to a PE 384-well HTRF detection plate; 4 μL of pre-mixed HTRF antibodies are added to each well; Cover the plate with a plate sealer, spin 1000 rpm for 1 min, Incubate overnight at room temperature; Read on BMG PheraStar with HTRF protocol (337 nm-665 nm-620 nm). The inhibition (degradation) percentage of the compound was calculated by the following equation:
# (§4) Inhibition percentage of Compound=100−100×(Signal−low control)/(High control−low control), wherein signal=each test compound group.
# (§5) High control=Cell group with added DMSO and without compound, indicating microplate readings without EGFR degradation;
# (§6) Dmax is the maximum percentage of inhibition (degradation).
# (§7) The IC50 (DC50) value of a compound can be obtained by fitting the following equation
# (§8) Y=Bottom+(TOP−Bottom)/(1+((C50/X)^hillslope))
# (§9) Wherein, X and Y are known values, and IC50, Hillslope, Top and Bottom are the parameters obtained by fitting with software. Y is the inhibition percentage (calculated from the equation), X is the concentration of the compound; IC50 is the concentration of the compound when the 50% inhibition is reached. The smaller the IC50 value is, the stronger the inhibitory ability of the compound is. Vice versa, the higher the IC50 value is, the weaker the ability the inhibitory ability of the compound is; Hillslope represents the slope of the fitted curve, generally around 1*; Bottom represents the minimum value of the curve obtained by data fitting, which is generally 000±20%; Top represents the maximum value of the curve obtained by data fitting, which is generally 100%±20%. The experimental data were fitted by calculating and analyzing with Dotmatics data analysis software. When Dmax<50%, DC50 will be automatically assigned as larger than […].
# EGFR (Del19/T790M/C797S) [2] = assay: Cell degradation HTRF assay, BaF3-DTC cells; details: 16 h treatment; for DC50: HTRF; for DTC Dmax (%): maximum percentage of degradation
# Procedure: as §1, §2, §3, §4, §5, §6, §7, §8, §9
# EGFR (L858R/T790M/C797S) [3] = target: T1, EGFR (L858R/T790M/C797S); assay: Cell degradation HTRF assay, H1975-clone #25 cells; details: H1975-clone #25 (L858R/T790M/C797S) cells, 16 h treatment; for DC50: HTRF, read-out: H1975-clone#25 LTC DC50; for Dmax: maximum percentage of degradation, read-out: H1975-clone#25 LTC Dmax (%)
# Procedure: Cell Degradation of Example 124-189
# H1975-#28 and H1975-#25 cells are treated with compounds diluted in 0.2% DMSO cell culture medium on day 2, incubate for 16 h, 37° C., 5% CO2. the final concentration of compounds in all assay is start with 10 uM, 5-fold dilution, total 8 doses were included.
# as §3, with “nm).” for “nm). The inhibition (degradation) percentage of the compound was calculated by the following equation:”
# The inhibition (degradation) percentage of the compound was calculated by the following equation:
# as §4, §5, §6, §7
# Y=Bottom+(TOP−Bottom)/(1+((IC50/X)^hillslope))
# as §9, with “0%±20%;” for “000±20%;”
# EGFR (Del19/T790M/C797S) [4] = assay: Cell degradation HTRF assay, H1975-clone #28 cells; details: H1975-clone #28 (Del19/T790M/C797S) cells, 16 h treatment; for DC50: HTRF, read-out: H1975-clone#28 DTC DC50; for H1975-clone#28 DTC Dmax (%): maximum percentage of degradation
# Method in brief: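 H1975 clones #25 and #28 were treated 16 h at 37° C, 5% CO2 with 8 doses (top 10 uM, 5-fold dilution) in 0.2% DMSO medium. EGFR in lysates read by HTRF (665/620 nm); degradation % relative to DMSO high control; DC50 from 4-parameter fit, Dmax = maximal degradation.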
# T1 sequence (P00533 25-1210 T790M/C797S/L858R): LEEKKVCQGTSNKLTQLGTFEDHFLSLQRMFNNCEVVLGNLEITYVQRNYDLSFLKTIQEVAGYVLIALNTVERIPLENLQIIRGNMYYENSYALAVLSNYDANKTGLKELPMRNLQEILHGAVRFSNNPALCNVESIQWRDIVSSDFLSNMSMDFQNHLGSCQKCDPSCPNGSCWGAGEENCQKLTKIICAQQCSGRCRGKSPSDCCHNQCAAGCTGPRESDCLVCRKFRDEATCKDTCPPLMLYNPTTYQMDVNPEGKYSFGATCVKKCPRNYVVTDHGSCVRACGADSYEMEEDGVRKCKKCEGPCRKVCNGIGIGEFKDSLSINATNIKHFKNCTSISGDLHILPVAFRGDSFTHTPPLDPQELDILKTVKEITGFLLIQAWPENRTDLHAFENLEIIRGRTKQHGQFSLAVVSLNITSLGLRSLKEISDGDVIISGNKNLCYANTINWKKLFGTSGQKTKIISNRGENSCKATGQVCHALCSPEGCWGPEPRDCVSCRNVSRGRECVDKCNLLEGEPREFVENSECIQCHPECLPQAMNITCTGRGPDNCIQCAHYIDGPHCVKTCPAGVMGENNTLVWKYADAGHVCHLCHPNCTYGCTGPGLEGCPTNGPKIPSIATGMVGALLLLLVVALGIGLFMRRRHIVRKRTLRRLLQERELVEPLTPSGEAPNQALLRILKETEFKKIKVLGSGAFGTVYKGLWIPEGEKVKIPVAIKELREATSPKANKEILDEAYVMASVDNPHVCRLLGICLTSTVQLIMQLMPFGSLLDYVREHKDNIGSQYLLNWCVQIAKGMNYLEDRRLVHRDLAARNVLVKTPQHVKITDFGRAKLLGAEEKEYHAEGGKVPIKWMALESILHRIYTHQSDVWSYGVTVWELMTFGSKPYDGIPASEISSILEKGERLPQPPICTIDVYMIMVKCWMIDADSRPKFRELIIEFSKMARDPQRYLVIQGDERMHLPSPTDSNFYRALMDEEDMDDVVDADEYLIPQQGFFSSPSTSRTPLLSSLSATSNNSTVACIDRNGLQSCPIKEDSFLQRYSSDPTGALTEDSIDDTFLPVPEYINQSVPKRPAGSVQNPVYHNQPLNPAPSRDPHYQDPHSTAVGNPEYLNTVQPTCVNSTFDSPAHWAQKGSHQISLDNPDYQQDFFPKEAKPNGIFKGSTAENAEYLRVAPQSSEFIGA
DC50 (EGFR (L858R/T790M/C797S) [1]),Dmax (EGFR (L858R/T790M/C797S) [1]),DC50 (EGFR (Del19/T790M/C797S) [2]),DC50 (EGFR (L858R/T790M/C797S) [3]),Dmax (EGFR (L858R/T790M/C797S) [3]),DC50 (EGFR (Del19/T790M/C797S) [4]),SMILES,DTC Dmax (%) (EGFR (Del19/T790M/C797S) [2]),H1975-clone#28 DTC Dmax (%) (EGFR (Del19/T790M/C797S) [4])
8.02 nM,89.4%,4.24 nM,–,–,–,"CCc1cc(Nc2ncc(Br)c(Nc3cnc4ccccc4c3P(C)(C)=O)n2)c(OC)cc1N1CCC(N2CCN(CC3CN(c4cc(F)c(C5CCC(=O)NC5=O)c(F)c4)C3)CC2)CC1 (stereo not shown) [Example 19, 3-(4-(3-((4-(1-(4-((5-bromo-4-((4-(dimethylphosphoryl)quinolin-3-yl)amino)pyrimidin-2-yl)amino)-2-ethyl-5-methoxyphenyl)piperidin-4-yl)piperazin-1-yl)methyl)azetidin-1-yl)-2,6-difluorophenyl)piperidine-2,6-dione]",97.44%,–
19.5 nM,89.5%,4.65 nM,–,–,–,"CCc1cc(Nc2ncc(Br)c(Nc3cnc4ccccc4c3P(C)(C)=O)n2)c(OC)cc1N1CCC(N2CCN(C(=O)C3CN(c4cc(F)c(C5CCC(=O)NC5=O)c(F)c4)C3)CC2)CC1 (stereo not shown) [Example 20, 3-(4-(3-(4-(1-(4-((5-bromo-4-((4-(dimethylphosphoryl)quinolin-3-yl)amino)pyrimidin-2-yl)amino)-2-ethyl-5-methoxyphenyl)piperidin-4-yl)piperazine-1-carbonyl)azetidin-1-yl)-2,6-difluorophenyl)piperidine-2,6-dione]",96.7%,–
5.02 nM,93.3%,1.11 nM,–,–,–,"CCc1cc(Nc2ncc(Br)c(Nc3cnc4ccccc4c3P(C)(C)=O)n2)c(OC)cc1N1CCC(N2CCN(CCc3cccc4c3n(C)c(=O)n4C3CCC(=O)NC3=O)CC2)CC1 (stereo not shown) [Example 21, 3-(4-(2-(4-(1-(4-((5-bromo-4-((4-(dimethylphosphoryl)quinolin-3-yl)amino)pyrimidin-2-yl)amino)-2-ethyl-5-methoxyphenyl)piperidin-4-yl)piperazin-1-yl)ethyl)-3-methyl-2-oxo-2,3-dihydro-1H-benzo[d]imidazol-1-yl)piperidine-2,6-dione]",94.17%,–
11.1 nM,88.6%,2.22 nM,–,–,–,"CCc1cc(Nc2ncc(Br)c(Nc3cnc4ccccc4c3P(C)(C)=O)n2)c(OC)cc1N1CCC(N2CCN(C(=O)C3CC4(CC(Nc5cc(F)c(C6CCC(=O)NC6=O)c(F)c5)C4)C3)CC2)CC1 (stereo not shown) [Example 23, 3-(4-((6-(4-(1-(4-((5-bromo-4-((4-(dimethylphosphoryl)quinolin-3-yl)amino)pyrimidin-2-yl)amino)-2-ethyl-5-methoxyphenyl)piperidin-4-yl)piperazine-1-carbonyl)spiro[3.3]heptan-2-yl)amino)-2,6-difluorophenyl)piperidine-2,6-dione]",94.5%,–
27.5 nM,89.6%,2.88 nM,–,–,–,"CCc1cc(Nc2ncc(Br)c(Nc3cnc4ccccc4c3P(C)(C)=O)n2)c(OC)cc1N1CCC(N2CCN(CCc3ccc4c(c3)C3(CC3)C(=O)N4C3CCC(=O)NC3=O)CC2)CC1 (stereo not shown) [Example 24, 3-(5′-(2-(4-(1-(4-((5-bromo-4-((4-(dimethylphosphoryl)quinolin-3-yl)amino)pyrimidin-2-yl)amino)-2-ethyl-5-methoxyphenyl)piperidin-4-yl)piperazin-1-yl)ethyl)-2′-oxospiro[cyclopropane-1,3′-indolin]-1′-yl)piperidine-2,6-dione]",84.3%,–
6.77 nM,85%,1.8 nM,–,–,–,"CCc1cc(Nc2ncc(Br)c(Nc3cnc4ccccc4c3P(C)(C)=O)n2)c(OC)cc1N1CCC(N2CCN(C(=O)C3CN(c4ccc5c(cnn5C5CCC(=O)NC5=O)c4)C3)CC2)CC1 (stereo not shown) [Example 25, 3-(5-(3-(4-(1-(4-((5-bromo-4-((4-(dimethylphosphoryl)quinolin-3-yl)amino)pyrimidin-2-yl)amino)-2-ethyl-5-methoxyphenyl)piperidin-4-yl)piperazine-1-carbonyl)azetidin-1-yl)-1H-indazol-1-yl)piperidine-2,6-dione]",88.68%,–
8.95 nM,81.9%,5.4 nM,–,–,–,"CCc1cc(Nc2ncc(Br)c(Nc3cnc4cnccc4c3P(C)(C)=O)n2)c(OC)cc1N1CCC(N2CCN(CCc3cc(F)c(C4CCC(=O)NC4=O)c(F)c3)CC2)CC1 (stereo not shown) [Example 28, 3-(4-(2-(4-(1-(4-((5-bromo-4-((4-(dimethylphosphoryl)-1,7-naphthyridin-3-yl)amino)pyrimidin-2-yl)amino)-2-ethyl-5-methoxyphenyl)piperidin-4-yl)piperazin-1-yl)ethyl)-2,6-difluorophenyl)piperidine-2,6-dione]",90.9%,–
–,–,–,3.4 nM,77%,1.4 nM,"CCOc1cc(N2CCC(N3CCN(CCc4cccc5c4n(C)c(=O)n5C4CCC(=O)NC4=O)CC3)CC2)c(CC)cc1Nc1ncc(Br)c(Nc2cnc3ccc(F)cc3c2P(C)(C)=O)n1 (stereo not shown) [Example 124, 3-(4-(2-(4-(1-(4-((5-bromo-4-((4-(dimethylphosphoryl)-6-fluoroquinolin-3-yl)amino)pyrimidin-2-yl)amino)-5-ethoxy-2-ethylphenyl)piperidin-4-yl)piperazin-1-yl)ethyl)-3-methyl-2-oxo-2,3-dihydro-1H-benzol[d]imidazol-1-yl) piperidine-2,6-dione]",–,73%
–,–,–,15.3 nM,77%,0.4 nM,"CCOc1cc(N2CCC(N3CCN(CCc4cccc5c4n(C)c(=O)n5C4CCC(=O)NC4=O)CC3)CC2)c(CC)cc1Nc1ncc(Br)c(Nc2cnc3cc(F)ccc3c2P(C)(C)=O)n1 (stereo not shown) [Example 147, 3-(4-(2-(4-(1-(4-((5-bromo-4-((4-(dimethylphosphoryl)-7-fluoroquinolin-3-yl)amino)pyrimidin-2-yl)amino)-5-ethoxy-2-ethylphenyl)piperidin-4-yl)piperazin-1-yl)ethyl)-3-methyl-2-oxo-2,3-dihydro-1H-benzol[d]imidazol-1-yl) piperidine-2,6-dione]",–,84%
–,–,–,4.2 nM,81%,2.8 nM,"CCc1cc(Nc2ncc(Br)c(Nc3cnc4ccc(C(F)(F)F)cc4c3P(C)(C)=O)n2)c(OC)cc1N1CCC(N2CCN(CCc3cccc4c3n(C)c(=O)n4C3CCC(=O)NC3=O)CC2)CC1 (stereo not shown) [Example 166, 3-(4-(2-(4-(1-(4-((5-bromo-4-((4-(dimethylphosphoryl)-6-(trifluoromethyl)quinolin-3-yl)amino)pyrimidin-2-yl)amino)-2-ethyl-5-methoxyphenyl)piperidin-4-yl)piperazin-1-yl)ethyl)-3-methyl-2-oxo-2,3-dihydro-1H-benzo[d]imidazol-1-yl)piperidine-2,6-dione]",–,80%
